Measured values taken from patent US11331327B2, “Antibacterial use of halogenated salicylanilides” (UNION therapeutics A/S, priority 2014, dated 2022).
In brackets after ≈: the same amount, converted by molar mass.

System: MRSA 01
Experiment: Effect of pH on the antibacterial activity (MIC) of niclosamide
Type: cell-based, Staphylococcus aureus
Details: for MIC: Staphylococcus aureus, MRSA
Experimental: This strain was conserved in Luria Bertani (LB) Broth supplemented with glycerol 15% (v/v) at −80° C., and reactivated by isolation on LB agar plates. It was then cultivated aerobically in Mueller Hinton (MH) Broth-cation adjusted at 37° C.
The pH of Mueller-Hinton Broth cation-adjusted was adjusted with HCl 2M to 7, 6.5, 6, 5.5, 5, 4.5 and […]. Ten ml of medium for each pH were prepared. pH of non-adjusted MHBII was equal to 7.4.
Each pH-adjusted samples were filtered on 0.2 μm filters before being used for the MIC determination assay.
Bacterial culture was stopped in its exponential growth phase and plates were inoculated with the approximate concentration of 5×10^5 cells per well. Plates were incubated at 37° C. for 18 hours (S. aureus).
The experiment was performed in triple biological replicates.

For `O=C(Nc1ccc([N+](=O)[O-])cc1Cl)c1cc(Cl)ccc1O` [Niclosamide, 5-chloro-N-(2-chloro-4-nitrophenyl)-2-hydroxybenz-amide], the “inhibitory activity against MRSA 01 as a function of pH” value (MRSA 01, pH 7.4 to 5.5) was “increased when pH was decreased”, the “pH at which the maximal inhibitory effect was observed” value (MRSA 01, pH-adjusted Mueller-Hinton Broth) was 5.5 and the MIC (MRSA 01, pH 5.5 (actual pH 5.530), Replicate 3) was at most 0.008 µg/mL. It also gave an MIC (MRSA 01, pH 5.5 (actual pH 5.547), Replicate 2) of at most 0.008 µg/mL, an MIC (MRSA 01, pH 5.5 (actual pH 5.569), Replicate 1) of at most 0.03 µg/mL and an MIC (MRSA 01, pH 6.0 (actual pH 5.893), Replicate 1) of 0.06 µg/mL (≈ 0.183 µM). The MIC (MRSA 01, pH 6.0 (actual pH 5.955), Replicate 2) was 0.06 µg/mL (≈ 0.183 µM), the MIC (MRSA 01, pH 6.0 (actual pH 5.980), Replicate 3) was 0.016 µg/mL (≈ 0.0489 µM) and the MIC (MRSA 01, pH 6.5 (actual pH 6.512), Replicate 1) was 0.125 µg/mL (≈ 0.382 µM). For the same compound, the MIC (MRSA 01, pH 6.5 (actual pH 6.540), Replicate 3) was 0.03 µg/mL (≈ 0.0917 µM), the MIC (MRSA 01, pH 6.5 (actual pH 6.566), Replicate 2) was 0.06 µg/mL (≈ 0.183 µM) and the MIC (MRSA 01, pH 7.0 (actual pH 6.921), Replicate 1) was 0.25 µg/mL (≈ 0.764 µM). The MIC (MRSA 01, pH 7.0 (actual pH 7.025), Replicate 3) was 0.125 µg/mL (≈ 0.382 µM), the MIC (MRSA 01, pH 7.0 (actual pH 7.071), Replicate 2) was 0.125 µg/mL (≈ 0.382 µM) and the MIC (pH 7.4, MRSA 01, pH not adjusted (actual pH 7.4), Replicate 1) was 0.5 µg/mL (≈ 1.53 µM). The MIC (pH 7.4, MRSA 01, pH not adjusted (actual pH 7.4), Replicate 2) was 0.25 µg/mL (≈ 0.764 µM) and the MIC (pH 7.4, MRSA 01, pH not adjusted (actual pH 7.4), Replicate 3) was 0.5 µg/mL (≈ 1.53 µM).
